The target of one assay is human NK1 receptor (Homo sapiens, UniProt P25103). Nature of the assay: NK1 receptor binding, [3H]substance P displacement, CHO cell membranes. Particulars: first value of the cell pKi NK1/NK3; human NK1 receptor, [3H]substance P.
Assay [1] deals with T1, Recombinant human NK3 (hNK3) receptor (Homo sapiens, UniProt P29371).
T1 construct: expressed in transfected cells
T1 sequence (P29371 1-465): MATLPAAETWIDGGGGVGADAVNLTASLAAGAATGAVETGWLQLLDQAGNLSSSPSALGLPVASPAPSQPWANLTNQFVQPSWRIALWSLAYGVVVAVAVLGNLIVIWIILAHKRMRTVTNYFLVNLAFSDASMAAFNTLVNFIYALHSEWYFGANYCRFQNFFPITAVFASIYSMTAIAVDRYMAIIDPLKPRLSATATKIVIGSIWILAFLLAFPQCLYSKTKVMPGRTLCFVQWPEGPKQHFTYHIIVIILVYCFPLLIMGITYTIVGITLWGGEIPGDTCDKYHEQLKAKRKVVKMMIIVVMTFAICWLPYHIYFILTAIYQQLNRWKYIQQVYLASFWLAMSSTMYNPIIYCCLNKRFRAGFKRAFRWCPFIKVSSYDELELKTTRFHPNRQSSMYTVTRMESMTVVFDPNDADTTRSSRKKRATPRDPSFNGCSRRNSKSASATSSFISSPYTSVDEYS
The assay is described as follows: NK3 receptor binding, [3H]SR142801 displacement, membrane preparations. Particulars: second value of the cell pKi NK1/NK3; hNK3 receptor, [3H]SR142801. A digest of the protocol:
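Incubation ran 90 min at room temperature in 50 mM Tris-HCl pH 7.4 with 0.1% BSA, 4 mM MnCl2 and 1 μM phosphoramidon, using about 2.5 μg hNK3 membrane protein per well. Nonspecific binding was defined with 10 μM SB222200, and bound radioactivity was collected on PEI-soaked GF/C filters for scintillation counting.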

pKi: −log10 of the molar value.

human NK1 receptor, sequence (P25103 whole entry): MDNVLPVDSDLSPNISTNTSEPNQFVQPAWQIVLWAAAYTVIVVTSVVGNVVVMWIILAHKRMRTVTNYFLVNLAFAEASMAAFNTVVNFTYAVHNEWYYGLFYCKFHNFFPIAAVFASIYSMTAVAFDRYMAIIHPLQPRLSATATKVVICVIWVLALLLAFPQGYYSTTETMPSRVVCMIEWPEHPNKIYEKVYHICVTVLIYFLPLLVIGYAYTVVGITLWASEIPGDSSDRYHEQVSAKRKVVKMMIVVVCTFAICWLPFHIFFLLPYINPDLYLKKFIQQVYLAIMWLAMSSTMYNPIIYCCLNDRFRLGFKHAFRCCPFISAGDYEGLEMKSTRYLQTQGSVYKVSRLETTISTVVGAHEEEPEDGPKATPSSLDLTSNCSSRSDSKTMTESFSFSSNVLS

For orientation: pKi means −log10 of the Ki, conventionally taken in molar units. For the compound `CC(=O)N1CCCN(c2cc(-c3ccccc3Cl)c(N(C)C(=O)C(C)(C)c3cc(C(F)(F)F)cc(C(F)(F)F)c3)cn2)CC1` [Example 63, N-[6-(4-Acetyl-[1,4]diazepan-1-yl)-4-(2-chloro-phenyl)-pyridin-3-yl]-2-(3,5-bis-trifluoromethyl-phenyl)-N-methyl-isobutyramide], the pKi at human NK1 receptor was 8.74; in assay [1], 8.93.

For the compound `CN(C(=O)C(C)(C)c1cc(C(F)(F)F)cc(C(F)(F)F)c1)c1cnc(N2CCC[C@H]2CN2CCCC2)cc1-c1ccccc1Cl` [Example 64, (S)-2-(3,5-Bis-trifluoromethyl-phenyl)-N-[4-(2-chloro-phenyl)-6-(−2-pyrrolidin-1-ylmethyl-pyrrolidin-1-yl)-pyridin-3-yl]-N-methyl-isobutyramide], the pKi at human NK1 receptor is 9.00; in assay [1] it was 8.54.

Take `CN(C(=O)C(C)(C)c1cc(C(F)(F)F)cc(C(F)(F)F)c1)c1cnc(N2CC[C@H](N(C)C)C2)cc1-c1ccccc1Cl` [Example 65, (S)-2-(3,5-Bis-trifluoromethyl-phenyl)-N-[4-(2-chloro-phenyl)-6-(3-dimethylamino-pyrrolidin-1-yl)-pyridin-3-yl]-N-methyl-isobutyramide]: the negative-log Ki (pKi) at human NK1 receptor is 8.94; in assay [1], 8.56.

Regarding `Cc1cc(F)ccc1-c1cc(NCCO)ncc1N(C)C(=O)C(C)(C)c1cc(C(F)(F)F)cc(C(F)(F)F)c1` [Example 68, 2-(3,5-Bis-trifluoromethyl-phenyl)-N-[4-(4-fluoro-2-methyl-phenyl)-6-(2-hydroxy-ethylamino)-pyridin-3-yl]-N-methyl-isobutyramide], the results for the pKi (at human NK1 receptor; in assay [1]) were 8.84 and 8.49, respectively.

`CN(C(=O)C(C)(C)c1cc(C(F)(F)F)cc(C(F)(F)F)c1)c1cnc(NCCO)cc1-c1ccc(F)cc1Cl` [Example 69, 2-(3,5-Bis-trifluoromethyl-phenyl)-N-[4-(2-chloro-4-fluoro-phenyl)-6-(2-hydroxy-ethylamino)-pyridin-3-yl]-N-methyl-isobutyramide]: the results for the negative logarithm of the Ki (pKi) (on human NK1 receptor; in assay [1]) were 8.95 and 7.84, respectively.

Take `CN(C(=O)C(C)(C)c1cc(C(F)(F)F)cc(C(F)(F)F)c1)c1cnc(NCCO)cc1-c1ccc(Cl)cc1Cl` [Example 70, 2-(3,5-Bis-trifluoromethyl-phenyl)-N-[4-(2,4-dichloro-phenyl)-6-(2-hydroxy-ethylamino)-pyridin-3-yl]-N-methyl-isobutyramide]: the pKi on human NK1 receptor is 8.70; in assay [1] it was 8.39.

On to `C[C@H](O)CNc1cc(-c2ccc(Cl)cc2Cl)c(N(C)C(=O)C(C)(C)c2cc(C(F)(F)F)cc(C(F)(F)F)c2)cn1` [Example 71, (S)-2-(3,5-Bis-trifluoromethyl-phenyl)-N-[4-(2,4-dichloro-phenyl)-6-(2-hydroxy-propylamino)-pyridin-3-yl]-N-methyl-isobutyramide], for which the pKi at human NK1 receptor is 8.69; in assay [1], 8.04.

Consider `C[C@H](O)CNc1cc(-c2ccccc2Cl)c(N(C)C(=O)C(C)(C)c2cc(C(F)(F)F)cc(C(F)(F)F)c2)cn1` [Example 72, (S)-2-(3,5-Bis-trifluoromethyl-phenyl)-N-[4-(2-chloro-phenyl)-6-(2-hydroxy-propylamino)-pyridin-3-yl]-N-methyl-isobutyramide], for which the negative logarithm of the Ki (pKi) at human NK1 receptor was 9.14; in assay [1] it was 7.58.

In the case of `C[C@@H](O)CNc1cc(-c2ccccc2Cl)c(N(C)C(=O)C(C)(C)c2cc(C(F)(F)F)cc(C(F)(F)F)c2)cn1` [Example 73, (R)-2-(3,5-Bis-trifluoromethyl-phenyl)-N-[4-(2-chloro-phenyl)-6-(2-hydroxy-propylamino)-pyridin-3-yl]-N-methyl-isobutyramide], the pKi is 9.06 on human NK1 receptor and 8.13 in assay [1].

Take `CN(C(=O)C(C)(C)c1cc(C(F)(F)F)cc(C(F)(F)F)c1)c1cnc(NCC(C)(C)O)cc1-c1ccccc1Cl` [Example 75, 2-(3,5-Bis-trifluoromethyl-phenyl)-N-[4-(2-chloro-phenyl)-6-(2-hydroxy-2-methyl-propylamino)-pyridin-3-yl]-N-methyl-isobutyramide]: the results for the pKi (on human NK1 receptor; in assay [1]) were 8.77 and 7.91, respectively.

`CCC(O)CNc1cc(-c2ccccc2Cl)c(N(C)C(=O)C(C)(C)c2cc(C(F)(F)F)cc(C(F)(F)F)c2)cn1` (centres unmarked) [Example 76, 2-(3,5-Bis-trifluoromethyl-phenyl)-N-[4-(2-chloro-phenyl)-6-(2-hydroxy-butylamino)-pyridin-3-yl]-N-methyl-isobutyramide]: the negative logarithm of the Ki (pKi) on human NK1 receptor was 8.80; in assay [1], 7.97.

Consider `Cc1cc(F)ccc1-c1cc(NC[C@H](C)O)ncc1N(C)C(=O)C(C)(C)c1cc(C(F)(F)F)cc(C(F)(F)F)c1` [Example 77, (S)-2-(3,5-Bis-trifluoromethyl-phenyl)-N-[4-(4-fluoro-2-methyl-phenyl)-6-(2-hydroxy-propylamino)-pyridin-3-yl]-N-methyl-isobutyramide], for which the pKi at human NK1 receptor is 9.19; in assay [1], 8.32.

As to `C[C@@H](CO)Nc1cc(-c2ccccc2Cl)c(N(C)C(=O)C(C)(C)c2cc(C(F)(F)F)cc(C(F)(F)F)c2)cn1` [Example 79, (S)-2-(3,5-Bis-trifluoromethyl-phenyl)-N-[4-(2-chloro-phenyl)-6-(2-hydroxy-1-methyl-ethylamino)-pyridin-3-yl]-N-methyl-isobutyramide], the figures for the negative logarithm of the Ki (pKi) (at human NK1 receptor; in assay [1]) were 8.87 and 7.98, respectively.

On to `C[C@H](CO)Nc1cc(-c2ccccc2Cl)c(N(C)C(=O)C(C)(C)c2cc(C(F)(F)F)cc(C(F)(F)F)c2)cn1` [Example 80, (R)-2-(3,5-Bis-trifluoromethyl-phenyl)-N-[4-(2-chloro-phenyl)-6-(2-hydroxy-1-methyl-ethylamino)-pyridin-3-yl]-N-methyl-isobutyramide], for which the negative logarithm of the Ki (pKi) is 8.90 at human NK1 receptor and 8.05 in assay [1].

Regarding `CN(C(=O)C(C)(C)c1cc(C(F)(F)F)cc(C(F)(F)F)c1)c1cnc(NC(CO)CO)cc1-c1ccccc1Cl` [Example 81, 2-(3,5-Bis-trifluoromethyl-phenyl)-N-[4-(2-chloro-phenyl)-6-(2-hydroxy-1-hydroxymethyl-ethylamino)-pyridin-3-yl]-N-methyl-isobutyramide], the negative logarithm of the Ki (pKi) on human NK1 receptor was 8.68; in assay [1], 8.25.

`CN(C(=O)C(C)(C)c1cc(C(F)(F)F)cc(C(F)(F)F)c1)c1cnc(N(CCO)CCO)cc1-c1ccccc1Cl` [Example 82, N-[6-[Bis-(2-hydroxy-ethyl)-amino]-4-(2-chloro-phenyl)-pyridin-3-yl]-2-(3,5-bis-trifluoromethyl-phenyl)-N-methyl-isobutyramide]: the pKi at human NK1 receptor is 9.03; in assay [1], 9.09.

Take `Cc1ccccc1-c1cc(N(CCO)CCO)ncc1N(C)C(=O)C(C)(C)c1cc(C(F)(F)F)cc(C(F)(F)F)c1` [Example 83, N-{6-[Bis-(2-hydroxy-ethyl)-amino]-4-o-tolyl-pyridin-3-yl}-2-(3,5-bis-trifluoromethyl-phenyl)-N-methyl-isobutyramide]: the results for the pKi (at human NK1 receptor; in assay [1]) were 8.93 and 8.96, respectively.

Take `Cc1cc(F)ccc1-c1cc(N(CCO)CCO)ncc1N(C)C(=O)C(C)(C)c1cc(C(F)(F)F)cc(C(F)(F)F)c1` [Example 84, N-[6-[Bis-(2-hydroxy-ethyl)-amino]-4-(4-fluoro-2-methyl-phenyl)-pyridin-3-yl]-2-(3,5-bis-trifluoromethyl-phenyl)-N-methyl-isobutyramide]: the negative-log Ki (pKi) was 8.47 at human NK1 receptor and 8.76 in assay [1].

With `Cc1cc(F)ccc1-c1cc(N(CCO)CCCO)ncc1N(C)C(=O)C(C)(C)c1cc(C(F)(F)F)cc(C(F)(F)F)c1` [Example 85, 2-(3,5-Bis-trifluoromethyl-phenyl)-N-{4-(4-fluoro-2-methyl-phenyl)-6-[(2-hydroxy-ethyl)-(3-hydroxy-propyl)-amino]-pyridin-3-yl}-N-methyl-isobutyramide], the negative logarithm of the Ki (pKi) on human NK1 receptor was 8.63; in assay [1], 8.64.

Take `CN(C(=O)C(C)(C)c1cc(C(F)(F)F)cc(C(F)(F)F)c1)c1cnc(N(CCO)CCO)cc1-c1ccc(Cl)cc1Cl` [Example 86, N-[6-[Bis-(2-hydroxy-ethyl)-amino]-4-(2,4-dichloro-phenyl)-pyridin-3-yl]-2-(3,5-bis-trifluoromethyl-phenyl)-N-methyl-isobutyramide]: the pKi at human NK1 receptor was 8.78; in assay [1], 8.45.

For the compound `CN(C(=O)C(C)(C)c1cc(C(F)(F)F)cc(C(F)(F)F)c1)c1cnc(N(CCO)CCO)cc1-c1ccc(Cl)c(Cl)c1` [Example 87, N-[6-[Bis-(2-hydroxy-ethyl)-amino]-4-(3,4-dichloro-phenyl)-pyridin-3-yl]-2-(3,5-bis-trifluoromethyl-phenyl)-N-methyl-isobutyramide], the negative-log Ki (pKi) at human NK1 receptor is 8.80; in assay [1], 8.02.

On to `CN(C(=O)C(C)(C)c1cc(C(F)(F)F)cc(C(F)(F)F)c1)c1cnc(N(CCO)CCO)cc1-c1ccc(F)cc1` [Example 88, N-[6-[Bis-(2-hydroxy-ethyl)-amino]-4-(4-fluoro-phenyl)-pyridin-3-yl]-2-(3,5-bis-trifluoromethyl-phenyl)-N-methyl-isobutyramide], for which the pKi on human NK1 receptor is 8.87; in assay [1] it was 8.03.

The values above are taken from patent US8404708B2, “Dual NK1/NK3 receptor antagonists” (Hoffmann-La Roche Inc., priority 2004, dated 2013).
